From patent US10391109B2, “Use of zoledronic acid to prepare drug treating fatty liver disease” (NANJING UNIVERSITY, priority 2015, dated 2019)
Several values for one entry are separate records, joined by “and”; a condition that tells them apart may be missing. Equal values may be shown once.

What was measured:
[1] = Body weight, liver weight and epididymal fat pad weight in C57BL/6J mice on regular chow or high fat diet after administration; assay type: in vivo; conditions: 50 μg/kg
Excerpt: The present inventors first used model mice with foodborne non-alcoholic fatty liver, that is, high-fat diet (containing 60% fat) was used for inducing C57BL/6J mice for 12 weeks to generate fatty liver. It was found from the experimental assay that feeding of high fat diet could result in hepatic fat accumulation and degeneration in mice.
A total of forty 8-week-old C57BL/6J mice were selected, and randomly assigned to 4 groups of 10 mice. The mice were weighted respectively, fed with regular chow (containing 4% fat) and high fat diet (containing 60% fat), and housed for 12 weeks. The mice were weekly weighted and recorded, and curves were plotted. After 12 weeks, the mice with fatty liver fed with regular chow and high fat diet were administered with zoledronic acid and placebo so as to explore the function for relieving fat accumulation. Meanwhile, the resulting changes of physiological indicators for mice were observed, and different body weights and physiological indicators were recorded.
The RC group is regular chow group, the HFD group is high fat diet group, PBS is placebo, ZOL is zoledronic acid, and the dosage is 50 μg/kg.

liver triglyceride [2] = test: Measurement of TG in liver tissue, C57BL/6J mice (foodborne non-alcoholic fatty liver); assay type: in vivo; conditions: 50 μg/kg tail vein injection once every two days
Description: (§1) About 50 mg of the right lobe of liver in mice was taken, with an accurate weight recorded. It was washed with PBS, placed in 1 ml of a lysis solution and mechanically homogenized. The lysed tissue homogenate was divided into two portions. One portion, 500 μl, was placed in a metal bath at 70° C., heated for 10 min, and centrifuged for 5 min at 2,000×rpm. 1-10 μl was taken for a tissue TG assay with the kit. Another 500 μl was used for a protein concentration assay using the BCA method.
(§2) According to the forgoing general materials and methods, the mice in the HFD group were first administered with zoledronic acid and placebo. In this example, zoledronic acid was administered mainly by tail vein injection. The primary site of action of the drug was liver. The injection was performed once every two days. The dosage was 50 μg/kg of zoledronic acid. Tissue triglyceride level assay and H&E staining were performed for mice after administration.
(§3) The HFD group is high fat diet group, the RC group is regular chow group, PBS is placebo, ZOL is zoledronic acid, and the dosage is 50 μg/kg.

[3] = system: hepatic macrovesicular steatosis; test: H&E staining of liver paraffin sections, high fat diet mice; assay type: in vivo, C57BL/6J mice; conditions: 50 μg/kg injection
Description: (§4) An appropriate amount of the right lobe of liver tissue was taken, fixed in 4% paraformaldehyde for 24-48 h, dehyrdated with graded ethanols, cleared with xylene, infiltrated with wax, embedded in paraffin, and sectioned at a thickness of 5 μm.
(§5) The sections were de-waxed in xylene for 10 min and 5 min respectively, and then reconstituted in graded ethanol solutions. The sections were subjected to hematoxylin staining for 4 min, and then slightly washed with distilled water. The sections were blued in 0.25% NH3.H2O for 30 s, and then washed with distilled water. The sections were dehydrated with graded ethanols to 95% ethanol, stained for 2-3 s in 0.5% eosin, dehydrated in 100% ethanol, and soaked in xylene for 2 min. Finally, the sections were mounted in Rhamsan gum.
as §2

[4] = system: blood alanine transaminase (ALT); test: Assay for blood ALT level, C57BL/6J mice; assay type: in vivo; conditions: 50 μg/kg
Description: (§6) After the mice were anaesthetized, blood was collected from the eye socket veins, left at room temperature for 30 min, and centrifuged upon serum precipitation. 10 μl serum was taken for ALT and AST assays with the kit.
(§7) Similar to Example 1, according to the forgoing general materials and methods, the mice in the HFD group were first administered with zoledronic acid and placebo. The blood alanine transaminase (ALT) and aspartate transaminase (AST) levels in mice after administration were assayed.
as §3

[5] = system: aspartate transaminase (AST); test: Assay for blood AST level, C57BL/6J mice; assay type: in vivo; conditions: 50 μg/kg
Description: as §6, §7, §3

[6] = Body weight, liver weight and epididymal fat pad weight in ob/ob mice after administration; assay type: in vivo
Description: In order to further verify the lipid reducing effect of zoledronic acid, the experiments of the present invention were carried out in ob/ob mice of hereditary obese mice models with severe non-alcoholic fatty liver mainly characterized by lipid accumulation. A total of thirty 10-week-old ob/ob mice were selected, randomly assigned to 3 groups of 10 mice, and housed with regular chow (containing 4% fat). Ob/ob mice were mutant mice mainly manifested as obesity and related metabolic syndrome. […] Ob/ob mice were administered with zoledronic acid and control placebo. The resulting changes of physiological indicators in mice were observed and different body weights and physiological indicators were recorded.

liver triglyceride [7] = test: Measurement of TG in liver tissue, ob/ob mice (hereditary non-alcoholic fatty liver); assay type: in vivo
Description: as §1

hepatic lipid content = test: Quantitative analysis of hepatic lipid content in ob/ob mice (Computer Tomography); assay type: in vivo
[8] = system: hepatic lipid accumulation; test: H&E staining of liver paraffin sections, ob/ob mice; assay type: in vivo; conditions: various dosages
Description: as §4, §5
(§8) Further, the liver structure was shown by H&E staining and the lipid accumulation was shown by Oil Red staining. Injection of zoledronic acid can effectively reduce hepatic lipid accumulation in hereditary obese mice. […] In addition, the use of the zoledronic acid preparation can effectively reduce the body weight of hereditary obese mice, effectively reduce accumulation of epididymal fat pads in mice, and modulate the triglyceride content in body, achieving an effective lipid reducing, lipid lowering, and slimming effect.

[9] = system: hepatic lipid accumulation; test: Oil Red staining of liver cryosections, ob/ob mice; assay type: in vivo; conditions: various dosages
Description: An appropriate amount of the right lobe of liver was taken at the same site for laboratory mice in each group, fixed in paraformaldehyde for 2 h, dehyrdated with 30% sucrose for 8-12 h, and embedded in OCT. It was stored in a refrigerator at −70° C. It was sectioned using a Cryostat Microtome at a section thickness of 15 μm.
The cryosections were slightly dried at room temperature, slightly washed with 60% ethanol, stained in an Oil Red 0 staining solution (60% Oil Red 0 stock plus 40% distilled water) for 10-15 min, differentiated in 60% ethanol, washed, subjected to nuclear staining with hematoxylin for 1 min, washed for 1 min, suck dried, and mounted with glycerin.
as §8

blood ALT = test: Assay for blood ALT level, ob/ob mice; assay type: in vivo
Description: as §6
(§9) Similar to Example 1, according to the forgoing general materials and methods, ob/ob mice were first administered with zoledronic acid preparation and placebo at various dosages. The blood ALT and AST levels in ob/ob mice after treatment were assayed.

blood AST = test: Assay for blood AST level, ob/ob mice; assay type: in vivo
Description: as §6, §9

SMILES: O=P(O)(O)C(O)(Cn1ccnc1)P(=O)(O)O [ZOL, 1-hydroxy-2-(imidazol-1-yl)-ethylidene-1,1-bisphosphonic acid]
- Average body weight/g ([1]; HFD group (high fat diet)): 36.73 ± 3.74 g
- Average decline of average body weight vs PBS ([1]; HFD group (high fat diet)): 16%
- Average decline of average epididymal fat pad weight vs PBS ([1]; HFD group (high fat diet)): 30%
- Average decline of average liver weight vs PBS ([1]; HFD group (high fat diet)): 29%
- Average epididymal fat pad weight/g ([1]; HFD group (high fat diet)): 2.33 ± 0.62 g
- Average liver weight/g ([1]; HFD group (high fat diet)): 1.41 ± 0.17 g
- Average body weight/g ([1]; RC group (regular chow)): 26.72 ± 1.69 g
- Average decline of average body weight vs PBS ([1]; RC group (regular chow)): 13%
- Average decline of average epididymal fat pad weight vs PBS ([1]; RC group (regular chow)): 39%
- Average decline of average liver weight vs PBS ([1]; RC group (regular chow)): 17%
- Average epididymal fat pad weight/g ([1]; RC group (regular chow)): 0.46 ± 0.11 g
- Average liver weight/g ([1]; RC group (regular chow)): 1.28 ± 0.08 g
- Average decline of liver triglyceride vs PBS (liver triglyceride [2]; HFD group): 44.9%
- Liver triglyceride (liver triglyceride [2]; HFD group): 38.18 ± 10.27 mg/g
- Average decline of liver triglyceride vs PBS (liver triglyceride [2]; RC group): 12.5%
- Liver triglyceride (liver triglyceride [2]; RC group): 14.33 ± 6.39 mg/g
- Liver histology, H&E staining (FIG. 3) [3]: significant remission in hepatic macrovesicular steatosis
- ALT IU/L ([4]; HFD group): 62.8 ± 14.08 IU/L
- Average decline of ALT vs PBS ([4]; HFD group): 45.2% and 44.7%
- ALT IU/L ([4]; RC group): 39.2 ± 12.09 IU/L
- Average decline of ALT vs PBS ([4]; RC group): no significant changes
- AST IU/L ([5]; HFD group): 76 ± 31.42 IU/L
- Average decline of AST vs PBS ([5]; HFD group): 44.7% and 45.2%
- AST IU/L ([5]; RC group): 52.4 ± 21.20 IU/L
- Average decline of AST vs PBS ([5]; RC group): no significant changes
- Average body weight/g ([6]; ZOL50 (50 μg/kg)): 50.56 ± 2.82 g
- Average decline of average body weight vs PBS ([6]; ZOL50 (50 μg/kg)): 7%
- Average decline of average epididymal fat pad weight vs PBS ([6]; ZOL50 (50 μg/kg)): 39%
- Average decline of average liver weight vs PBS ([6]; ZOL50 (50 μg/kg)): 17%
- Average epididymal fat pad weight/g ([6]; ZOL50 (50 μg/kg)): 3.628 ± 0.27 g
- Average liver weight/g ([6]; ZOL50 (50 μg/kg)): 3.47 ± 0.58 g
- Average body weight/g ([6]; ZOL200 (200 μg/kg)): 45.94 ± 5.16 g
- Average decline of average body weight vs PBS ([6]; ZOL200 (200 μg/kg)): 15%
- Average decline of average epididymal fat pad weight vs PBS ([6]; ZOL200 (200 μg/kg)): 4%
- Average decline of average liver weight vs PBS ([6]; ZOL200 (200 μg/kg)): 46%
- Average epididymal fat pad weight/g ([6]; ZOL200 (200 μg/kg)): 3.79 ± 0.30 g
- Average liver weight/g ([6]; ZOL200 (200 μg/kg)): 2.26 ± 0.21 g
- Average decline of liver triglyceride vs PBS (liver triglyceride [7]; ZOL50 (50 μg/kg)): No significant change
- Liver triglyceride (liver triglyceride [7]; ZOL50 (50 μg/kg)): 140.88 ± 44.29 mg/g
- Average decline of liver triglyceride vs PBS (liver triglyceride [7]; ZOL200 (200 μg/kg)): 34%
- Liver triglyceride (liver triglyceride [7]; ZOL200 (200 μg/kg)): 98.49 ± 40.08 mg/g
- Average decline of lipid content vs PBS (hepatic lipid content; ZOL50 (50 μg/kg)): 20.4%
- Lipid content (hepatic lipid content; ZOL50 (50 μg/kg)): 592.00 ± 201.08 mg/mL
- Average decline of lipid content vs PBS (hepatic lipid content; ZOL200 (200 μg/kg)): 34%
- Lipid content (hepatic lipid content; ZOL200 (200 μg/kg)): 490.22 ± 211.95 mg/mL
- Liver histology, H&E staining (FIG. 7) [8]: significant decrease in hepatic lipid accumulation
- Liver histology, Oil Red staining (FIG. 8) [9]: significant decrease in hepatic lipid accumulation
- ALT IU/L (blood ALT; ZOL50 (50 μg/kg)): 281.6 ± 142.59 IU/L
- Average decline of ALT vs PBS (blood ALT; ZOL50 (50 μg/kg)): 42.5%
- ALT IU/L (blood ALT; ZOL200 (200 μg/kg)): 277.4 ± 188.65 IU/L
- Average decline of ALT vs PBS (blood ALT; ZOL200 (200 μg/kg)): 43.4%
- AST IU/L (blood AST; ZOL50 (50 μg/kg)): 240.25 ± 70.54 IU/L
- Average decline of AST vs PBS (blood AST; ZOL50 (50 μg/kg)): 30.4%
- AST IU/L (blood AST; ZOL200 (200 μg/kg)): 269.75 ± 71.53 IU/L
- Average decline of AST vs PBS (blood AST; ZOL200 (200 μg/kg)): 21.9%
